Laboratory results: patent US11578074B2, “Nitrogenous heterocyclic compound, preparation method, intermediate, composition, and application” (SHANGHAI PHARMACEUTICALS HOLDING CO., LTD., priority 2017, dated 2023)
Where two headings read alike, the source gives them in different places.

Legend:
[1] = test system: N87 (human gastric cancer cell NCI-N87); test: In vitro proliferation inhibition assay of cell lines (CellTiter-Glo), N87; assay type: cell-based; conditions: N87 cells, 72 hours
Summary of the method: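 Cells seeded overnight (BT-474 8.8×10^4 cells/mL, N87 6.6×10^4 cells/mL), then exposed to 9 compound concentrations in duplicate for 72 hours at 37° C, 5% CO2. Viability read by CellTiter-Glo luminescence.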

CYP2C19 = molecular target: T1, CYP2C19 (Homo sapiens, UniProt P33261); test: Direct inhibition (DI) of CYP2C19 in human liver microsomes; assay type: in vitro ADME; conditions: probe Mephenytoin, human liver microsomes 0.2 mg/mL, 10 μM compound, read-out: Direct inhibition (DI) 2C19 (Mephenytoin)
T1 construct: A system of 100 μL human liver microsomes; from tissue; host or cells: human liver microsomes
T1 sequence (P33261 whole entry): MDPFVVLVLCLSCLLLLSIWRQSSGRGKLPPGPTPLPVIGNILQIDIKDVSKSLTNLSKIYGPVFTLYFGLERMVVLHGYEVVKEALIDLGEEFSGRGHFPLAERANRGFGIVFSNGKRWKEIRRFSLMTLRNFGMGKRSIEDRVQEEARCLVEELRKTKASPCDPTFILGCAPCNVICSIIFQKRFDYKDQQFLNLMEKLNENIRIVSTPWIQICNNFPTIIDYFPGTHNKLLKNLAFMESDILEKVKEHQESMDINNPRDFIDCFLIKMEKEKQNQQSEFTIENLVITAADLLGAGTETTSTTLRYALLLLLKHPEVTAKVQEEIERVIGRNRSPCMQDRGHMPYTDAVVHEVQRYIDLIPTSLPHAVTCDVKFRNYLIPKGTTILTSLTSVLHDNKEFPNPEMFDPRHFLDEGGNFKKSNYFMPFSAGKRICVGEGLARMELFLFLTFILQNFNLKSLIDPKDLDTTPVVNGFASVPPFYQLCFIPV
Description: (§1) Study on Direct Inhibition (DI) of CYP3A4, CYP2D6, CYP2C9, CYP2C19, CYP1A2
(§2) A system of 100 μL human liver microsomes (final concentration: 0.2 mg/mL) was used for direct inhibition under warm incubation. The system contained NADPH (final concentration: 1 mM), 10 μM compound, a positive inhibitor cocktail (Ketoconazole 10 μM, Quinidine: 10 μM, Sulfaphenazole: 100 μM, Naphthoflavone: 10 μM, Tranylcypromene 1000 μM), a negative control 10 μM DMSO and mixed probe substrates (Midazolam 10 μM, Testosterone 100 μM, Dextromethophan 10 μM, Diclofenac 20 μM, Phenetin 100 μM, Mephenytoin 100 μM). The reaction was terminated after incubation for 20 minutes. The relative activity of the enzymes was calculated by measuring the relative production of metabolites.

CYP2D6 = molecular target: T2, CYP2D6 (Homo sapiens, UniProt P10635); test: Direct inhibition (DI) of CYP2D6 in human liver microsomes; assay type: in vitro ADME; conditions: probe Dextromethorphan, human liver microsomes 0.2 mg/mL, 10 μM compound, read-out: Direct inhibition (DI) 2D6 (Dextromethorphan)
T2 construct: A system of 100 μL human liver microsomes; from tissue; host or cells: human liver microsomes
T2 sequence (P10635 whole entry): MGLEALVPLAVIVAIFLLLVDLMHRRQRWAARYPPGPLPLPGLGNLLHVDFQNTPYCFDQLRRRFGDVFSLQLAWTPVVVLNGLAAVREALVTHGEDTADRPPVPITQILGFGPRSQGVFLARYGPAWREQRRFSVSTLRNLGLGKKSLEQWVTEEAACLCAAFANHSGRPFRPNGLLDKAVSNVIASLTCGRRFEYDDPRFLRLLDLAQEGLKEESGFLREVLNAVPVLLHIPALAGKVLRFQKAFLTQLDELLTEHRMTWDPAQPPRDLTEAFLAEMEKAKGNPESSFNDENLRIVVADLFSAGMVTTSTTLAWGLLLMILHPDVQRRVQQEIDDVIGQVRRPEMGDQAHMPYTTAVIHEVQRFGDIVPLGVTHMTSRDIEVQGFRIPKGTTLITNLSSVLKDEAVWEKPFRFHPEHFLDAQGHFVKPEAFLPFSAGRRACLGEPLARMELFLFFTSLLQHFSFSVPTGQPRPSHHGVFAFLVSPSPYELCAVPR
Description: as §1, §2

[2] = test system: BT-474 (human breast cancer cell); test: In vitro proliferation inhibition assay of cell lines (CellTiter-Glo), BT-474; assay type: cell-based; conditions: BT-474 cells, 72 hours
Summary of the method: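 Cells were exposed to nine compound concentrations in duplicate for 72 h at 37 °C and 5% CO2. Viability was read with CellTiter-Glo reagent after equilibration at room temperature.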

ErbB2 kinase = molecular target: T3, ErbB2 kinase (Homo sapiens, UniProt P04626); test: EGFR/ErbB2 enzymatic experiment (HTRF kinEASE-TK), ErbB2; assay type: biochemical; conditions: ErbB2 kinase 0.06 ng/μL, ATP 4 μM; read-out: Kinase IC50 (nM) in vitro ErbB2
T3 construct: The final concentration of ErbB2 kinase was 0.06 ng/μL
T3 sequence (P04626 23-1255): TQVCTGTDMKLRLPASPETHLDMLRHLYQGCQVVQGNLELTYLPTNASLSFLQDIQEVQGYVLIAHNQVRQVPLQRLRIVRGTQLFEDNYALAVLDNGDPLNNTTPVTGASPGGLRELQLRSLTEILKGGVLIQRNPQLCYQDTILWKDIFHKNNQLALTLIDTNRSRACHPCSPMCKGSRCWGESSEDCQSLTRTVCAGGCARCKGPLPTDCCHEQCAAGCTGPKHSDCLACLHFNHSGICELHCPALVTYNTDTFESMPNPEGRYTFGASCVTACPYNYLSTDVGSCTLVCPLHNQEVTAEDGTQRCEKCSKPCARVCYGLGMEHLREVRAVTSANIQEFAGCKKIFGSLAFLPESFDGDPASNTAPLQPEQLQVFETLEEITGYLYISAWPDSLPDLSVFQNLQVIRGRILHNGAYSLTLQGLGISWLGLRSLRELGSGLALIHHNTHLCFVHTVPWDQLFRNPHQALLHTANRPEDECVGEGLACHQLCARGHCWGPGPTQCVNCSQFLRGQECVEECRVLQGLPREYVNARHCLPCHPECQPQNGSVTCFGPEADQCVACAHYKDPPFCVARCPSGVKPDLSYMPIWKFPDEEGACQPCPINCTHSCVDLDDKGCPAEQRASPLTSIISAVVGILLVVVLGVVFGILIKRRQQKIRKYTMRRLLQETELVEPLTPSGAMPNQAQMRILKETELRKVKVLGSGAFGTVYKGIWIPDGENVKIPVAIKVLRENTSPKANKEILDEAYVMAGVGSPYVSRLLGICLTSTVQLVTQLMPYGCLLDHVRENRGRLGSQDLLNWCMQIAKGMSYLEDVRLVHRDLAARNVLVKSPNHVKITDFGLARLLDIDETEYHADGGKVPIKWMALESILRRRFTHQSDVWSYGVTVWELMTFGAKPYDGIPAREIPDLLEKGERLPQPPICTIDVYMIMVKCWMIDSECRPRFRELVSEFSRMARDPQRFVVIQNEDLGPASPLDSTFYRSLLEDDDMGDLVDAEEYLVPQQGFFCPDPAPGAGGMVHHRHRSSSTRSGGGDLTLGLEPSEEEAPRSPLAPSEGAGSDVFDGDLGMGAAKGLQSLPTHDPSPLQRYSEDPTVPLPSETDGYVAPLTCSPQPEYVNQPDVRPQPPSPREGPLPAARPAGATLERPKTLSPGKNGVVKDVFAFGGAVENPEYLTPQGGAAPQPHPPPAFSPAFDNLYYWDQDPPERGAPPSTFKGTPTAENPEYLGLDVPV

CYP3A4 = molecular target: T4, CYP3A4 (Homo sapiens, UniProt P08684); test: Direct inhibition (DI) of CYP3A4 in human liver microsomes; assay type: in vitro ADME; conditions: human liver microsomes 0.2 mg/mL, 10 μM compound
T4 construct: A system of 100 μL human liver microsomes; from tissue; host or cells: human liver microsomes
T4 sequence (P08684 whole entry): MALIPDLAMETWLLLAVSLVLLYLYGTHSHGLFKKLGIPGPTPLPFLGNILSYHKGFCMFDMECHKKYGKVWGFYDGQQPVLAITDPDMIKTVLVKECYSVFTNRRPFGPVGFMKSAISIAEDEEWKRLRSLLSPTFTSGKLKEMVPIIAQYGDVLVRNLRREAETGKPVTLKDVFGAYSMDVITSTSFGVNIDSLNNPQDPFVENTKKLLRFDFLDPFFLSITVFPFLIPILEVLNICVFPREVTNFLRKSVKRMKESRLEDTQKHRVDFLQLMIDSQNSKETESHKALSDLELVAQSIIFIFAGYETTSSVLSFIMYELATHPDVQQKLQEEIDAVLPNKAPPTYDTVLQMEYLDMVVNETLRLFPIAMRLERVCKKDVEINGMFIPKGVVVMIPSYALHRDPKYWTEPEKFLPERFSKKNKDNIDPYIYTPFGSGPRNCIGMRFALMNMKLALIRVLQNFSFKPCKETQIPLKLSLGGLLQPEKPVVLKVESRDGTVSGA
Description: as §1, §2

CYP2C9 = molecular target: T5, CYP2C9 (Homo sapiens, UniProt P11712); test: Direct inhibition (DI) of CYP2C9 in human liver microsomes; assay type: in vitro ADME; conditions: probe Diclofenac, human liver microsomes 0.2 mg/mL, 10 μM compound, read-out: Direct inhibition (DI) 2C9 (Diclofenac)
T5 construct: A system of 100 μL human liver microsomes; from tissue; host or cells: human liver microsomes
T5 sequence (P11712 whole entry): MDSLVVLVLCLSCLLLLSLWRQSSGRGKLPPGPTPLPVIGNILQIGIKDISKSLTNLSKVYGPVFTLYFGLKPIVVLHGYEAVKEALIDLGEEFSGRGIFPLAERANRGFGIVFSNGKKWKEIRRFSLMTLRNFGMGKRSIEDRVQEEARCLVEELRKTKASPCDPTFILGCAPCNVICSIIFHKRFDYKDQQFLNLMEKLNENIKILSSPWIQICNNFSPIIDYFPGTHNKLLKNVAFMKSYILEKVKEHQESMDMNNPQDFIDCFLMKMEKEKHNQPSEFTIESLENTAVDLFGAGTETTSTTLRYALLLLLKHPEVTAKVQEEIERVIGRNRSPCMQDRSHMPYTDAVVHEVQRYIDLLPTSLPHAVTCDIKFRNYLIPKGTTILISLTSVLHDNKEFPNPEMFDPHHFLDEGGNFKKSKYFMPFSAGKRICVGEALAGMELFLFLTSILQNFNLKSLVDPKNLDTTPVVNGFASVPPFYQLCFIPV
Description: as §1, §2

CYP1A2 = molecular target: T6, CYP1A2 (Homo sapiens, UniProt P05177); test: Direct inhibition (DI) of CYP1A2 in human liver microsomes; assay type: in vitro ADME; conditions: probe Phenacetin, human liver microsomes 0.2 mg/mL, 10 μM compound, read-out: Direct inhibition (DI) 1A2 (Phenacetin)
T6 construct: A system of 100 μL human liver microsomes; from tissue; host or cells: human liver microsomes
T6 sequence (P05177 1-516): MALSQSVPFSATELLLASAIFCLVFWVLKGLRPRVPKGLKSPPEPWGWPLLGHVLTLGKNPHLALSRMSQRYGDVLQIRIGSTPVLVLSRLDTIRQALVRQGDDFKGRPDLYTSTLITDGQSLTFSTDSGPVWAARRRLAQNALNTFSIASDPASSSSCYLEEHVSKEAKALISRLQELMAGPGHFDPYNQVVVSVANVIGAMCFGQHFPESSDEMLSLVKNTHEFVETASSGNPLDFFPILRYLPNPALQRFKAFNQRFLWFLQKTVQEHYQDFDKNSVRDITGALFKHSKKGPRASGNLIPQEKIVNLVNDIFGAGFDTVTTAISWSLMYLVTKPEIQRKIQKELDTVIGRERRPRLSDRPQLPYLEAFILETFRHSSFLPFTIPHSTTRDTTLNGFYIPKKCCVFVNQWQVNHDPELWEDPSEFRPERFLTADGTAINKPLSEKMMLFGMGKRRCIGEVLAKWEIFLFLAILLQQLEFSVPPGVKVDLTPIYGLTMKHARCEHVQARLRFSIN
Description: as §1, §2

EGFR kinase = EGFR kinase (Homo sapiens, UniProt P00533); test: EGFR/ErbB2 enzymatic experiment (HTRF kinEASE-TK), EGFR; assay type: biochemical; conditions: EGFR kinase 0.06 units/μL, ATP 1.65 μM; read-out: Kinase IC50 (nM) in vitro EGFR
Sequence of EGFR kinase (P00533 25-1210): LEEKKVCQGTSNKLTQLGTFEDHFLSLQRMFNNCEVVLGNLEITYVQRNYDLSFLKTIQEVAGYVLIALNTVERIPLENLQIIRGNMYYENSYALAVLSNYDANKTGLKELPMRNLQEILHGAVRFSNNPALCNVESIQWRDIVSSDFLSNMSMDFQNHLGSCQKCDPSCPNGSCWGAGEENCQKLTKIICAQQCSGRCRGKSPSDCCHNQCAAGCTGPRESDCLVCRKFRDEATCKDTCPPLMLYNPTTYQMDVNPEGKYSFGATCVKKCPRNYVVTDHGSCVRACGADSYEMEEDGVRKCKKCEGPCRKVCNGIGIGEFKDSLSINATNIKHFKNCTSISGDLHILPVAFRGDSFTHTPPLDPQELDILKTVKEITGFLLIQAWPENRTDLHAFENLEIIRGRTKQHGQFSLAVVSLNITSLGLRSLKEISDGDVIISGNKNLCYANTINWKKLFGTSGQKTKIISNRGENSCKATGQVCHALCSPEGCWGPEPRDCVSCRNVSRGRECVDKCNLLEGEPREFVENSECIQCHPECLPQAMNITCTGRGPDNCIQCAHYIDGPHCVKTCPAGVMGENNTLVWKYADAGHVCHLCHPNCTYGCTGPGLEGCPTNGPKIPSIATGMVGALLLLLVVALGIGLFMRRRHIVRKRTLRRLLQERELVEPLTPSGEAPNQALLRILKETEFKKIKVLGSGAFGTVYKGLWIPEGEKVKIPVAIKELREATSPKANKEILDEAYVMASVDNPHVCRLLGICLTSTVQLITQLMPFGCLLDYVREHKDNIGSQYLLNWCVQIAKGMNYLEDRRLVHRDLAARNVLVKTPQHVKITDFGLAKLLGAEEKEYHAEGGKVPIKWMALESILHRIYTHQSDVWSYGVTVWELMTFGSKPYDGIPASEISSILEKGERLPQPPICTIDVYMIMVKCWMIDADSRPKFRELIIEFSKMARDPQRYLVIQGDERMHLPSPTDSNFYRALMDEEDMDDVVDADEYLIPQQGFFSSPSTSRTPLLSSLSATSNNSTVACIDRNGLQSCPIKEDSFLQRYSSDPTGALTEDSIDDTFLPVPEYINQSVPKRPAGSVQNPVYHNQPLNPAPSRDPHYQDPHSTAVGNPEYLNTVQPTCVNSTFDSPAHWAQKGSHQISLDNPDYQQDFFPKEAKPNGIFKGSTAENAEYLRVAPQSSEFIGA

[3] = test system: HER2 overexpressing human gastric cancer NCI-N87 nude mice xenograft; test: HER2 overexpressing human gastric cancer NCI-N87 nude mice xenograft model; assay type: in vivo; conditions: 10 mg/kg, continuous oral administration for 21 days
Source text: We have established nude mice xenograft model for HER2 overexpression.

[4] = probe Midazolam, read-out: Direct inhibition (DI) 3A4 (Midazolam)
[5] = probe Testosterone, read-out: Direct inhibition (DI) 3A4 (testosterone)

Row | SMILES | IC50 [1] | inhibition at 20 min, 10 µM (CYP2C19) | inhibition at 20 min, 10 µM (CYP2D6) | IC50 [2] | IC50 (ErbB2 kinase) | inhibition at 20 min, 10 µM (CYP3A4; [4]) | inhibition at 20 min, 10 µM (CYP3A4; [5]) | inhibition at 20 min, 10 µM (CYP2C9) | inhibition at 20 min, 10 µM (CYP1A2) | IC50 (EGFR kinase) | tumor volume inhibition rate (GI %) [3]
1 | C=C(F)C(=O)N1CC=C(c2ccc3ncnc(Nc4ccc(Oc5cc6nncn6cn5)c(C)c4)c3c2)CC1 [Final product of Embodiment 6, 1-(4-(4-((4-([1,2,4]triazolo[4,3-c]pyrimidin-7-yloxy)-3-methylphenyl)amino)quinazolin-6-yl)-5,6-dihydropyridin-1(2H)-yl)-2-fluoropropyl-2-en-1-one] | 24 nM | 41% | 30% | 16.1 nM | 2.92 nM | 72% | 80% | 55% | 13% | 233 nM | 
2 | C=CC(=O)N1CCCC(Nc2ccc3ncnc(Nc4ccc(Oc5cc6nncn6cn5)c(C)c4)c3c2)C1 (stereo in doubt) [Final product of Embodiment 8, (R)-1-(3-((4-((4-([1,2,4]triazolo[4,3-c]pyrimidin-7-yloxy)-3-methylphenyl)amino)quinazolin-6-yl)amino)piperidin-1-yl)propan-2-en-1-one] | 19.4 nM | 28% | 11% | 10.3 nM | 17.5 nM | 61% | 72% | 17% | 11% | 136 nM | 
3 | C=CC(=O)N[C@@H]1CCCN(c2ccc3ncnc(Nc4ccc(Oc5cc6nncn6cn5)c(C)c4)c3c2)C1 [Final product of Embodiment 3, (R)—N-(1-(4-((4-([1,2,4]triazolo[4,3-c]pyrimidin-7-yloxy)-3-methylphenyl)amino)quinazolin-6-yl)piperidin-3-yl) acrylamide] | 15.6 nM | 9% | 4% | 15.3 nM | 3.83 nM | 54% | 61% | 26% | 14% | 24.3 nM | 
4 | Cc1cc(Nc2ncnc3ccc(NC(=O)/C=C/[C@H]4CCCN4C)cc23)ccc1Oc1ccc2nccn2c1 [Final product of Embodiment 24] | 2.93 nM | 36% | 90% | 4.6 nM | 6.46 nM | 36% | 48% | 48% | 18% | 4.08 nM | 
5 | Cc1cc(Nc2ncnc3ccc(NC(=O)/C=C/[C@H]4CCCN4C)cc23)ccc1Oc1ccc2nccn2n1 [Final product of Embodiment 10] | 3.52 nM | 9% | 46% | 4.56 nM | 1.34 nM | 12% | 29% | < 0% | 14% | 4.62 nM | 
6 | CCOc1cc2ncc(C#N)c(Nc3ccc(OCc4ccccn4)c(Cl)c3)c2cc1NC(=O)/C=C/CN(C)C [Neratinib, reference compound] |  |  |  |  |  |  |  |  |  |  | 112.5%

Second part, led by results:

Row | IC50 [1] | inhibition at 20 min, 10 µM (CYP2C19) | inhibition at 20 min, 10 µM (CYP2D6) | IC50 [2] | IC50 (ErbB2 kinase) | inhibition at 20 min, 10 µM (CYP3A4; [4]) | inhibition at 20 min, 10 µM (CYP3A4; [5]) | inhibition at 20 min, 10 µM (CYP2C9) | inhibition at 20 min, 10 µM (CYP1A2) | IC50 (EGFR kinase) | SMILES | tumor volume inhibition rate (GI %) [3]
7 | 2.07 nM | 7% | 61% | 3.23 nM | 0.584 nM | 0% | 14% | < 0% | 6% | 3.93 nM | Cc1cc(Nc2ncnc3ccc(NC(=O)/C=C/[C@H]4CCCN4C)cc23)ccc1Oc1ccn2ncnc2c1 [Final product of Embodiment 20, (R,E)-N-(4-((4-([1,2,4]triazolo[1,5-a]pyridin-7-yloxy)-3-methylphenyl)amino)quinazolin-6-yl)-3-(1-methylpyrrolidin-2-yl)acrylamide] | 
8 | 1.58 nM | 8% | 4% | 2.1 nM | 0.513 nM | 12% | 23% | 4% | 5% | 0.358 nM | CCOc1cc2ncnc(Nc3ccc(Oc4cc5nncn5cn4)c(C)c3)c2cc1NC(=O)/C=C/[C@H]1CCCN1C [Final product of Embodiment 18, (R,E)-N-(4-((4-([1,2,4]triazolo[4,3-c]pyrimidin-7-yloxy)-3-methylphenyl)amino)-7-ethoxyquinazolin-6-yl)-3-(1-methylpyrrolidin-2-yl)acrylamide] | 
9 | 2.4 nM | 45% | 24% | 2.8 nM | 0.5 nM | 5% | 16% | 10% | < 0% | 0.6 nM | CCOc1cc2ncnc(Nc3ccc(Oc4ccn5ncnc5c4)c(C)c3)c2cc1NC(=O)/C=C/[C@H]1CCCN1 [Final product of Embodiment 38, (R,E)-N-(4-((4-([1,2,4]triazolo[1,5-a]pyridin-7-yloxy)-3-methylphenyl)amino)-7-ethoxyquinazolin-6-yl)-3-(pyrrolidin-2-yl)acrylamide] | 
10 | 1.3 nM | < 0% | 69% | 1.8 nM | 2.6 nM | < 0% | < 0% | < 0% | < 0% | 4.7 nM | Cc1cc(Nc2ncnc3ccc(NC(=O)/C(F)=C/[C@H]4CCCN4C)cc23)ccc1Oc1cc2nncn2cn1 [Final product of Embodiment 43] | 
